Literature values, collected in patent publication US20040180832A1, “Sustained peptide-release formulation” (Peptech Limited, priority 1996, published 2004).

Test system: advanced prostatic cancer
Conditions: monthly subcutaneous injections

CC(C)C[C@H](NC(=O)[C@@H](COC(C)(C)C)NC(=O)[C@H](Cc1ccc(O)cc1)NC(=O)[C@H](CO)NC(=O)[C@H](Cc1c[nH]c2ccccc12)NC(=O)[C@H](Cc1cnc[nH]1)NC(=O)[C@@H]1CCC(=O)N1)C(=O)N[C@@H](CCCNC(=N)N)C(=O)N1CCC[C@H]1C(=O)NNC(N)=O [goserelin, 3-[5-oxo-L-prolyl-L-tryptophyl-L-seryl-L-tyrosyl-(3-O-tert-butyl)-D-seryl-L-leucyl-L-arginyl-L-prolyl] cabazamide acetate.]
efficacy in advanced prostatic cancer compared with orchiectomy: as effective as orchiectomy | tolerability: well tolerated
